Assay results published in patent publication US4399125A, “Novel antagonists of the antidiuretic action of arginine vasopressin” (priority 1981, dated 1983).
*1 amine or outer side, *2 acyl side, *3 side chain or, on linkers, in order; H or OH if unused. Where a SMILES comes first, the peptide text is derived from it. Bridges are numbered along the chain shown (N, C = ends). [ ]: non-standard residue; d: D form. The star is where a group is joined. X1 = O=C(CC1(S[*:2])CCCCC1)[*:1]; Propyl = CCC*; iPr = CC(C)*

Assays:
[1] = test system: oxytocic response to oxytocin; details: literature; cited from earlier work
[2] = test system: antidiuretic activity (urine flow); details: prior art statement; cited from earlier work
vasoconstrictive action = details: compared with natural vasopressins; cited from earlier work
[3] = test system: antidiuretic response to ADH (arginine vasopressin); experiment: Antagonism of the antidiuretic response to ADH (anti-antidiuretic potency) in ethanol-anesthetized water-loaded rats; details: estimated in vivo pA2 = negative logarithm of effective dose divided by estimated volume of distribution (67 mL/kg); (n) in parentheses
Method: Activity as antidiuretic agonists was determined by intravenous injection of compounds being evaluated into ethanol-anesthesized water-loaded rats in accordance with Sawyer et al., Endocrinology, vol. 63 (1958) at 694.
(§1) Antagonistic potencies were determined and expressed as "effective doses" and as pA2 values. The "effective dose" is defined as the dose (in nanomoles per kilogram) that reduces the response seen from 2x units of agonist injected 20 min after the dose of antagonist to the response with 1x units of agonist.

[4] = test system: vasopressor response to AVP; experiment: Antagonism to the vasopressor response (Dyckes et al.); details: estimated in vivo pA2 (Schild); effective dose / 67 mL/kg; (n) in parentheses
Method: Antagonism to the vasopressor response was estimated in accordance with Dyckes et al., J. Med. Chem., vol. 17 (1974) at 969. The values are expressed as pA2 values, defined by Schild et al., Br. J. Pharmacol., vol. 2 (1947) at 189.
as §1

[5] = test system: vasopressor response to AVP; details: prior art statement; cited from earlier work
[6] = test system: antidiuretic response to ADH (arginine vasopressin); details: earlier work of Manning et al. (in press); cited from earlier work

Molecule: 1-deamino-oxytocin [dOT]
- oxytocic activity (agonist / antagonist, in words) [1]: highly potent oxytocic agonist

Molecule: 1-deamino[4-valine, 8-D-arginine] vasopressin [dVDAVP]
- antidiuretic potency / activity (in words) [2]: highly active and selective antidiuretic peptide

Molecule: 2-phenylalanine-8-ornithine vasopressin
- antidiuretic potency / activity (in words) [2]: low antidiuretic activity
- vasoconstrictive action (vasoconstrictive action): equal to that of natural vasopressins

Molecule: COc1ccc(C[C@@H]2NC(=O)CC3(CCCCC3)SSC[C@@H](C(=O)N3CCC[C@H]3C(=O)N[C@@H](CCCNC(=N)N)C(=O)NCC(N)=O)NC(=O)[C@H](CC(N)=O)NC(=O)[C@H](C(C)C)NC(=O)[C@H](Cc3ccccc3)NC2=O)cc1 [d(CH2)5 Tyr(Me) VAVP] (Y(Me)FVNCPRG-NH2; linker N-5 via X1)
- Anti-Antidiuretic pA2 [3]: 7.35 ± 0.06
- Antivasopressor pA2 [4]: 8.32 ± 0.08

Molecule: COc1ccc(C[C@@H]2NC(=O)CC3(CCCCC3)SSC[C@@H](C(=O)N3CCC[C@H]3C(=O)N[C@H](CCCNC(=N)N)C(=O)NCC(N)=O)NC(=O)[C@H](CC(N)=O)NC(=O)[C@H](C(C)C)NC(=O)[C@H](Cc3ccccc3)NC2=O)cc1 [d(CH2)5 Tyr(Me) VDAVP, [1-(β-mercapto-β,β-cyclopentamethylenepropionic acid), 2-O-methyltyrosine, 4-valine, 8-D-arginine] vasopressin] (Y(Me)FVNCP[dR]G-NH2; linker N-5 via X1)
- Anti-Antidiuretic pA2 [3]: 6.68 ± 0.11
- Antivasopressor pA2 [4]: 8.44 ± 0.07

Molecule: CC(C)Oc1ccc(C[C@@H]2NC(=O)CC3(CCCCC3)SSC[C@@H](C(=O)N3CCC[C@H]3C(=O)N[C@@H](CCCNC(=N)N)C(=O)NCC(N)=O)NC(=O)[C@H](CC(N)=O)NC(=O)[C@H](C(C)C)NC(=O)[C@H](Cc3ccccc3)NC2=O)cc1 [d(CH2)5 Tyr(i-Pr) VAVP] (Y(iPr)FVNCPRG-NH2; linker N-5 via X1)
- Anti-Antidiuretic pA2 [3]: 7.32 ± 0.06
- Antivasopressor pA2 [4]: 8.36 ± 0.09

Molecule: CC(C)Oc1ccc(C[C@@H]2NC(=O)CC3(CCCCC3)SSC[C@@H](C(=O)N3CCC[C@H]3C(=O)N[C@H](CCCNC(=N)N)C(=O)NCC(N)=O)NC(=O)[C@H](CC(N)=O)NC(=O)[C@H](C(C)C)NC(=O)[C@H](Cc3ccccc3)NC2=O)cc1 [d(CH2)5 Tyr(i-Pr) VDAVP] (Y(iPr)FVNCP[dR]G-NH2; linker N-5 via X1)
- Anti-Antidiuretic pA2 [3]: 6.88 ± 0.07
- Antivasopressor pA2 [4]: 8.41 ± 0.08

Molecule: CCCOc1ccc(C[C@@H]2NC(=O)CC3(CCCCC3)SSC[C@@H](C(=O)N3CCC[C@H]3C(=O)N[C@@H](CCCNC(=N)N)C(=O)NCC(N)=O)NC(=O)[C@H](CC(N)=O)NC(=O)[C@H](C(C)C)NC(=O)[C@H](Cc3ccccc3)NC2=O)cc1 [d(CH2)5 Tyr(n-Pr) VAVP] (Y(Propyl)FVNCPRG-NH2; linker N-5 via X1)
- Anti-Antidiuretic pA2 [3]: 7.29 ± 0.07
- Antivasopressor pA2 [4]: 8.22 ± 0.04

Molecule: CCCOc1ccc(C[C@@H]2NC(=O)CC3(CCCCC3)SSC[C@@H](C(=O)N3CCC[C@H]3C(=O)N[C@H](CCCNC(=N)N)C(=O)NCC(N)=O)NC(=O)[C@H](CC(N)=O)NC(=O)[C@H](C(C)C)NC(=O)[C@H](Cc3ccccc3)NC2=O)cc1 [d(CH2)5 Tyr(n-Pr) VDAVP] (Y(Propyl)FVNCP[dR]G-NH2; linker N-5 via X1)
- Anti-Antidiuretic pA2 [3]: 6.67 ± 0.05
- Antivasopressor pA2 [4]: 7.86 ± 0.10

Molecule: CC(C)[C@@H]1NC(=O)[C@H](Cc2ccccc2)NC(=O)[C@@H](CCCNC(=N)N)NC(=O)CC2(CCCCC2)SSC[C@@H](C(=O)N2CCC[C@H]2C(=O)N[C@@H](CCCNC(=N)N)C(=O)NCC(N)=O)NC(=O)[C@H](CC(N)=O)NC1=O [d(CH2)5 [D-Arg^2] VAVP, [1-(β-mercapto-β,β-cyclopentamethylenepropionic acid), 2-D-arginine, 4-valine]-arginine vasopressin] ([dR]FVNCPRG-NH2; linker N-5 via X1)
- Anti-Antidiuretic pA2 [3]: < 5.9
- Antivasopressor pA2 [4]: ~ 5.4

Molecule: CC[C@@H](C)[C@H]1NC(=O)CC2(CCCCC2)SSC[C@@H](C(=O)N2CCC[C@H]2C(=O)N[C@@H](CCCNC(=N)N)C(=O)NCC(N)=O)NC(=O)[C@H](CC(N)=O)NC(=O)[C@H](C(C)C)NC(=O)[C@H](Cc2ccccc2)NC1=O [d(CH2)5 [D-Ile^2] VAVP, [1-(β-mercapto-β,β-cyclopentamethylenepropionic acid), 2-D-isoleucine, 4-valine]-arginine vasopressin] ([dI]FVNCPRG-NH2; linker N-5 via X1)
- Anti-Antidiuretic pA2 [3]: 7.98 ± 0.05
- Antivasopressor pA2 [4]: 6.94 ± 0.08

Molecule: CC(C)C[C@H]1NC(=O)CC2(CCCCC2)SSC[C@@H](C(=O)N2CCC[C@H]2C(=O)N[C@@H](CCCNC(=N)N)C(=O)NCC(N)=O)NC(=O)[C@H](CC(N)=O)NC(=O)[C@H](C(C)C)NC(=O)[C@H](Cc2ccccc2)NC1=O [d(CH2)5 [D-Leu^2] VAVP, [1-(β-mercapto-β,β-cyclopentamethylenepropionic acid), 2-D-leucine, 4-valine]-arginine vasopressin] ([dL]FVNCPRG-NH2; linker N-5 via X1)
- Anti-Antidiuretic pA2 [3]: 7.79 ± 0.12
- Antivasopressor pA2 [4]: 6.45 ± 0.09

Molecule: CC(C)[C@@H]1NC(=O)[C@H](Cc2ccccc2)NC(=O)[C@@H](C(C)C)NC(=O)CC2(CCCCC2)SSC[C@@H](C(=O)N2CCC[C@H]2C(=O)N[C@@H](CCCNC(=N)N)C(=O)NCC(N)=O)NC(=O)[C@H](CC(N)=O)NC1=O [d(CH2)5 [D-Val^2] VAVP, [1-(β-mercapto-β,β-cyclopentamethylenepropionic acid), 2-D-valine, 4-valine]-arginine vasopressin] ([dV]FVNCPRG-NH2; linker N-5 via X1)
- Anti-Antidiuretic pA2 [3]: 7.48 ± 0.06
- Antivasopressor pA2 [4]: 6.41 ± 0.05

Molecule: [1-(β-Mercapto-β,β-cyclopentamethylenepropionic acid), 2-(O-methyl)tyrosine]-arginine vasopressin
- vasopressor antagonism (in words) [5]: potent vasopressor antagonists
- antidiuretic potency / activity (in words) [2]: very low antidiuretic potency

Molecule: [1-(β-Mercapto-β,β-cyclopentamethylenepropionic acid] arginine vasopressin
- vasopressor antagonism (in words) [5]: potent vasopressor antagonists
- antidiuretic potency / activity (in words) [2]: very low antidiuretic potency

Molecule: [1-(β-mercapto-β,β-cyclopentamethylenepropionic acid), 2-D-tyrosine, 4-valine, 8-D-arginine] vasopressin [d(CH2)5 D-Tyr-VDAVP]
- anti-antidiuretic activity (in words) [6]: anti-antidiuretics

Molecule: [1-(β-mercapto-β,β-cyclopentamethylenepropionic acid), 4-valine, 8-D-arginine] vasopressin
- vasopressor antagonism (in words) [5]: potent antagonists of the vasopressor response to AVP
- antidiuretic potency / activity (in words) [2]: weak antidiuretic activity

Molecule: [1-(β-mercapto-β,β-cyclopentamethylenepropionic acid)] oxytocin [d(CH2)5 OT]
- oxytocic activity (agonist / antagonist, in words) [1]: potent antagonists of the oxytocic response to oxytocin

Molecule: [1-deaminopenicillamine, 4-valine, 8-D-arginine]vasopressin
- vasopressor antagonism (in words) [5]: potent antagonists of the vasopressor response to AVP
- antidiuretic potency / activity (in words) [2]: weak antidiuretic activity

Molecule: [1-deaminopenicillamine] oxytocin [dPOT]
- oxytocic activity (agonist / antagonist, in words) [1]: potent antagonists of the oxytocic response to oxytocin
